The values that follow come from ChEMBL document CHEMBL3988442, “University of Dundee, Small-Polar-MMV Screening Library” (2021).

The structures appear in SMILES notation. Values joined by “and” are separate entries in the source; they are usually repeats but may differ in a detail not shown here. Equal entries are not always repeated.

In the assay the test system is Plasmodium falciparum. The assay is described as follows: Calibr Malaria Delayed Death Assay SOP. The following applies: for IC50: Plasmodium falciparum. In kind it is functional, organism-based.

Turning to `CC(NCCc1nccn1Cc1ccccc1)c1ccsc1` (configuration not stated), the pIC50 was 6.094 and half-maximal inhibition (IC50) was put at 1 µM.

On to `COc1cccc(OC)c1CN1CC(=O)N(c2ccc(C)cc2)CC1C` (configuration not stated), for which the pIC50 amounted to 5.987 and half-maximal inhibition (IC50) required 0.877 µM.

For `NC1CCCCN(Cc2ccccc2CS(=O)(=O)c2ccccc2)C1` (configuration not stated), the pIC50 was determined as 6.25 and the 50% inhibitory concentration (IC50) is 0.568 µM.

Compound `CC(O)CN1CCC(CNCc2cccc(C(F)(F)F)c2)CC1` (configuration not stated) showed a negative logarithm of the IC50 (pIC50) of 6.332 and an IC50 of 0.751 µM.

The compound `O=C(C(CNCc1ccsc1)c1ccccc1)N1CCOCC1` (configuration not stated) had a pIC50 of 6.002 and an IC50 of 1.45 µM.

As for `CC(C)(C)C(=O)NCCNCc1ccc(Cl)c2cccnc12`, the negative logarithm of the IC50 (pIC50) was found to be 6.099 and the 50% inhibitory concentration (IC50) was 0.703 µM.

`CN(Cc1ccccc1-n1cccn1)C[C@@H]1CCCN2CCCC[C@H]12` had a pIC50 of 6.129 and a half-inhibitory concentration (IC50) of 0.852 µM.

Regarding `Fc1ccc(Nc2ccc(C3CCN(Cc4ncc[nH]4)CC3)nc2)nc1`, the negative logarithm of the IC50 (pIC50) worked out at 6.119 and the IC50 was 0.987 µM.

`CN(CCO)C[C@@H]1CN(C2CCN(c3ccccc3Cl)CC2)C[C@@H]1CO` had a negative-log IC50 (pIC50) of 6.408 and an IC50 of 0.316 µM.

`COc1cc(CNCC(O)c2ccc(F)cc2F)cc2c1OCO2` (configuration not stated) had a pIC50 of 6.074 and an IC50 of 0.972 µM.

As to `COc1ccc2[nH]c(C[C@@H]3C[C@@H](C(C)C)[C@H](CN(C)C)C=C3C)nc2c1`, the pIC50 came out at 6.245 and 0.615 µM corresponded to half-maximal inhibition (IC50).

Take `CCC1CN(C(=O)c2ccc(Cl)cc2O)CCN1C(C)C` (configuration not stated): the pIC50 came out at 5.81 and the IC50 is 1.13 µM.

For `COc1ccc(CN2CC[C@@H](O)[C@@H]2Cc2ccccc2)cc1.O=C(O)C(F)(F)F`, the pIC50 came to 5.901 and the IC50 was 1.54 µM.

Regarding `Cc1ccccc1CNCC(O)c1ccc(OC(C)C)cc1` (configuration not stated), the pIC50 is 6.206 and half-maximal inhibition (IC50) required 0.637 µM.

Take `CSc1ccc(-c2nc(CN3CCC(CN)C3)c(C)o2)cc1` (configuration not stated): the pIC50 was 5.962 and 5.805 and 6.058; half-maximal inhibition (IC50) required 1.02 µM.

As to `Oc1cccc2ccc(CN3CCC4(CCNCC4)C3)nc12`, the negative-log IC50 (pIC50) is reported as 6.257 and the concentration for half-maximal inhibition (IC50) is 0.736 µM.

Regarding `CC(NCC1CCN(CCO)CC1)c1cccc(Cl)c1` (configuration not stated), the pIC50 is 6.336 and the IC50 is 0.442 µM.

For the compound `Cc1ccccc1CNCc1cc(Cl)ccc1O`, the pIC50 was found to be 6.395 and the half-maximal inhibitory concentration (IC50) is 0.601 µM.

As to `CCCOc1ccccc1CN[C@@H]1CCC[C@H]1Cc1cc(C)no1.O=C(O)CC(O)(CC(=O)O)C(=O)O`, the negative logarithm of the IC50 (pIC50) came to 5.985 and the 50% inhibitory concentration (IC50) was 1.23 µM.

For `CC(C)NC(=O)C1(Cc2ccccc2-c2cccs2)CCNC1` (configuration not stated), the pIC50 was 6.06 and the half-inhibitory concentration (IC50) was 0.982 µM.

`CC(C)(C)n1cc(C2=CCN(CCN3CCCCCC3)CC2)cn1` gave a pIC50 of 5.987 and an IC50 of 0.994 µM.

`CN(CCO)CC1COCCN1C(=O)C1(c2cccs2)CCCC1.O=CO` (configuration not stated) gave a negative-log IC50 (pIC50) of 6.007 and a concentration for half-maximal inhibition (IC50) of 0.573 µM.

Regarding `Br.Cc1cc(C)c(N(CC(O)CNCc2ccccc2)S(C)(=O)=O)c(C)c1` (configuration not stated), the pIC50 came to 6.525 and half-maximal inhibition (IC50) required 0.355 µM.

In turn, `OC[C@@H]1CCCN1c1nccc(-c2c[nH]nc2-c2ccncc2)n1` had a negative logarithm of the IC50 (pIC50) of 6.195 and a 50% inhibitory concentration (IC50) of 0.764 µM.

In turn, `CC1(C)CC(N(Cc2cccnc2)Cc2cccc(F)c2)CC(C)(C)N1.O=C(O)CC(O)(CC(=O)O)C(=O)O` had a pIC50 of 6.708 and a concentration for half-maximal inhibition (IC50) of 0.291 µM.

In the case of `COc1ccc(NC(=O)c2ccc(-n3ncc(C#N)c3N)cc2)cn1`, the pIC50 came out at 5.946 and the IC50 is 1.11 µM.

As to `COCC(O)CN(C)c1ccnc2cc(Br)ccc12` (configuration not stated), the pIC50 was determined as 6.091 and the IC50 is 0.834 µM.

`O[C@H]1[C@H](n2cc(CN3CCCC3)nn2)c2ccccc2C12CCNCC2` had a negative logarithm of the IC50 (pIC50) of 7.12 and a half-inhibitory concentration (IC50) of 0.0647 µM.

As for `Cc1ccc(C(C)NCCc2nccn2Cc2ccccc2)o1` (configuration not stated), the negative-log IC50 (pIC50) came to 5.88 and the IC50 is 1.26 µM.

`CC(C)N1CCC2(CCCN(c3nccc(C(F)(F)F)n3)C2)CC1.O=C(O)C(F)(F)F` had a pIC50 of 6.114 and an IC50 of 0.55 µM.

`NCC1[C@H]2CN(Cc3cccc(Cl)c3)C[C@@H]12` (some centres not stated): the pIC50 is 6.278 and the half-maximal inhibitory concentration (IC50) was 0.553 µM.

`Cl.Fc1ccccc1Cn1c(C2CCNCC2)cc2cccnc21` showed a negative-log IC50 (pIC50) of 6.466 and an IC50 of 0.293 µM.

With `Cc1ccc(C2(CN3CCN(Cc4cnc(C)n4C)CC3)CC2)cc1.Cl`, the pIC50 is 6.615 and the half-inhibitory concentration (IC50) is 0.255 µM.

`Cc1cc(CN(C)c2nc(-c3ccccn3)nc3c2CCNCC3)n[nH]1` had a pIC50 of 5.981 and an IC50 of 1.08 µM.

Compound `CCC(CC)(CN)NC(C)c1ccccc1` (configuration not stated) gave a pIC50 of 6.003 and a half-maximal inhibitory concentration (IC50) of 0.924 µM.

`COc1ccccc1CCN1CCCC(CN(C)Cc2ccc(C)o2)C1` (configuration not stated) showed a pIC50 of 5.915 and an IC50 of 1.03 µM.

For the compound `CN1CCC2(CCCN(c3nccc(C(F)(F)F)n3)C2)CC1.O=C(O)C(F)(F)F`, the negative-log IC50 (pIC50) amounted to 6.246 and half-maximal inhibition (IC50) was put at 0.771 µM.

As for `CC(C)n1ccnc1C1CCCN(c2ccnc3ccccc23)C1` (configuration not stated), the negative logarithm of the IC50 (pIC50) stood at 6.118 and the concentration for half-maximal inhibition (IC50) was 0.829 µM.

The compound `CN(C[C@H]1CN2CC[C@H]1C[C@@H]2CNC(=O)c1ccco1)c1ccccc1` gave a pIC50 of 5.968 and an IC50 of 1.13 µM.

As for `CN1[C@H](Cn2cccn2)C[C@@H]2CN(Cc3cccs3)CC[C@@H]21.O=C(O)C(F)(F)F.O=C(O)C(F)(F)F.O=C(O)C(F)(F)F`, the negative-log IC50 (pIC50) is on record as 6.221 and the IC50 is 0.593 µM.

As for `CC(C)(C)n1cc(C2=CCN(CCc3ccccn3)CC2)cn1`, the pIC50 is 6.143 and 1.03 µM corresponded to half-maximal inhibition (IC50).

Regarding `CN(CCO)Cc1cc(Cl)ccc1OCC(O)CN1CCCCCC1` (configuration not stated), the negative-log IC50 (pIC50) was 6.095 and the half-maximal inhibitory concentration (IC50) was 0.765 µM.

In the case of `Cc1cc(C)n(C2CN(CC(O)c3cc(F)ccc3F)C2)n1` (configuration not stated), the pIC50 is on record as 6.757 and the IC50 is 0.223 µM.

`O=C(c1ccc(F)c(Cl)c1)N1C[C@@H]2CC[C@H](C1)N(Cc1ccccc1)C2` showed a negative-log IC50 (pIC50) of 5.941 and an IC50 of 0.758 µM.

The compound `CN1CCC(O)(CNCc2ccc(F)c(C(F)(F)F)c2)CC1` had a pIC50 of 6.096 and an IC50 of 0.75 µM.

`Clc1cccc2c3c([nH]c12)CCN(Cc1cc2n(n1)CCCNC2)C3` showed a pIC50 of 6.194 and an IC50 of 0.965 µM.

Take `CN1CC[C@H](N(Cc2ccccc2)Cc2ccccc2)C[C@H](O)C1`: the pIC50 came to 6.066 and the half-maximal inhibitory concentration (IC50) was 0.897 µM.

Compound `Cc1cc(F)ccc1-c1ccccc1CC1CNCCNC1=O.Cl` (configuration not stated) gave a pIC50 of 6.113 and an IC50 of 1.19 µM.

Compound `CCC(NCc1cccc(Cl)c1)c1ccccc1OCC(=O)NC` (configuration not stated) gave a pIC50 of 6.073 and an IC50 of 1.37 µM.

`CCN(C)CC1CCN(S(=O)(=O)c2cc(C)c(F)cc2Cl)C1` (configuration not stated): the pIC50 is recorded as 5.917 and half-maximal inhibition (IC50) required 0.986 µM.

`Cc1cn2c(n1)C(CNCc1ccc(C)s1)CCC2` (configuration not stated) showed a negative logarithm of the IC50 (pIC50) of 6.227 and a half-inhibitory concentration (IC50) of 0.722 µM.

Consider `CCc1ccc(C2c3nc[nH]c3CCN2Cc2nccn2CC)nc1` (configuration not stated), for which the pIC50 was determined as 6.077 and the IC50 was 0.819 µM.

`Cc1cc(NC(=O)NC2CCN(C(C)C)CC2)c2ncccc2c1`: the pIC50 is 5.97 and the IC50 is 0.796 µM.

In turn, `Cc1ccsc1CN(CCCN(C)C)Cc1ccccn1` gave a pIC50 of 6.353 and a half-inhibitory concentration (IC50) of 0.409 µM.

Take `Fc1cccc(C(NCc2ncc[nH]2)c2ccccn2)c1` (configuration not stated): the negative logarithm of the IC50 (pIC50) is 6.434 and the IC50 is 0.351 µM.

The compound `CCN(CC)C(CNC(=O)c1c(C)noc1C(C)C)c1ccsc1` (configuration not stated) gave a pIC50 of 6.097 and an IC50 of 1.36 µM.

With `CCN1CCN(c2ccc(F)cc2C(C)NCc2ccccn2)CC1` (configuration not stated), the negative-log IC50 (pIC50) was 6.099 and the IC50 is 0.651 µM.

Turning to `Cc1nc(-c2ccc(F)c(F)c2)cc(C2CCNCC2)n1.Cl`, the pIC50 was found to be 6.123 and the half-maximal inhibitory concentration (IC50) was 0.797 µM.

`O=C(NCCc1ccccc1)NCCN1CCC(c2cccs2)CC1` had a negative-log IC50 (pIC50) of 6.05 and a 50% inhibitory concentration (IC50) of 0.855 µM.

As for `CC(C)[C@@H]1CN(C(=O)C2(c3ccccc3)CCN(C)CC2)C[C@H]1N(C)C`, the pIC50 is recorded as 6.113 and 0.71 µM corresponded to half-maximal inhibition (IC50).

`NC(=O)CN1CCC(Nc2ccnc3ccc(Cl)cc23)CC1` had a pIC50 of 6.054 and an IC50 of 0.761 µM.

With `COc1cccc(CNCc2cccc(Cl)c2)c1O`, the pIC50 worked out at 6.064 and the midpoint of inhibition, the IC50, lay at 0.914 µM.

In the case of `CCC(C)(C)n1nnnc1C(c1cccs1)N1CCc2ccccc2C1` (configuration not stated), the pIC50 came to 6.38 and the concentration for half-maximal inhibition (IC50) was 0.55 µM.

The compound `CC(C)N(C)Cc1cnc2n1CCN(C(=O)NC1CCCC1)C2.O=C(O)C(F)(F)F` gave a pIC50 of 6.607 and an IC50 of 0.275 µM.

`CC(C)[C@H](CO)Nc1nccc(-c2c[nH]nc2-c2ccncc2)n1`: the pIC50 is 5.945 and inhibition was half-maximal at 1.13 µM (IC50).

`Cc1cnccc1CN1CC[C@@](C)(O)[C@H](Oc2cccc(F)c2)C1` had a pIC50 of 5.517 and an IC50 of 2.33 µM.

The compound `CNc1cc(C)nc(NC2CCCN(C3Cc4ccccc4C3)C2)n1` (configuration not stated) showed a pIC50 of 6.074 and a half-maximal inhibitory concentration (IC50) of 0.775 µM.

Take `COc1ccc(CN2CCNC(=O)CC2)cc1SC(F)(F)F`: the pIC50 was 6.078 and the IC50 was 0.754 µM.

`Cc1ccc(CN2CCC3(CC2)CCN(Cc2ccco2)CC3)cc1.O=C(O)C(F)(F)F.O=C(O)C(F)(F)F` showed a pIC50 of 6.236 and an IC50 of 0.555 µM.

On to `O=C(NC1CCN(CC2CC2)C1)N1CCC(OC2CCCCC2)CC1` (configuration not stated), for which the pIC50 was found to be 6.591 and 0.332 µM corresponded to half-maximal inhibition (IC50).

For `CC(C)(C)C(=O)N1C[C@H](c2ccsc2)[C@H]2CN(C3CCCCC3)CC[C@H]21.Cl`, the negative logarithm of the IC50 (pIC50) was 6.133 and 0.683 µM corresponded to half-maximal inhibition (IC50).
